# Results published in patent publication US20090324581A1, “HETEROARYLAMIDE LOWER CARBOXYLIC ACID DERIVATIVE” (Daiichi Sankyo company Limited, priority 2006, published 2009).
# Structures can show the parent of a compound that is named as a salt.
# Key:
# [1] = system: lymphocytes in peripheral blood; test: Decrease in peripheral blood lymphocyte count of mice after administration of each compound; assay type: in vivo; conditions: four hours after administration, peripheral blood lymphocyte count vs solvent group; for T/C(%) (3 mg/kg): 3 mg/kg peroral; for T/C(%) (10 mg/kg): 10 mg/kg peroral
# Description: 2. In Vivo Evaluation of Test Substances (Decrease in Peripheral Blood Lymphocyte Count of Mice after Administration of Each Compound):
# There has already been reported that lymphocytes in peripheral blood of mice decrease after administration of an S1P receptor agonist [SCIENCE, 296, 346-349 (2002)]. According to the evaluation method disclosed in the document, test compounds were evaluated.
# Four hours after peroral administration, blood (0.5 mL) was collected from each mouse through the posterior vena cava under anesthesia with ether by use of EDTA as an anti-coagulant. The number of lymphocytes in peripheral blood was determined by means of a general hematological tester ADVIA 120 (Bayer Medical). The pharmacological action of each test drug was evaluated as T/C (%) ratio, which is a ratio of average peripheral blood lymphocyte count of a test drug-administered group to that of the solvent-administered group (control group).
# (§1) T/C(%)=(average peripheral blood lymphocyte count of a test drug-administered group)/(average peripheral blood lymphocyte count of the solvent-administered group)×100
# [2] = target: T1, human S1P1 (EDG-1) (Homo sapiens, UniProt P21453); test: Intracellular calcium flux assay (agonist activity against S1P1 (EDG-1) receptor); assay type: cell-based; conditions: CHO cells expressing Gqi5 and human S1P1 (EDG-1), intracellular calcium change
# T1 construct: expressed in transfected cells; host or cells: CHO-K1 cells stably expressing HA-Gqi5
# Description: The HA-Gqi5 expression plasmid, which had been produced in (2) above, was integrated into CHO-K1 cells by use of a Fugene 6 reagent (product of Roche Diagnostics K.K.), and cells of interest were selected by use of hygromycin. A CHO cell expressing HA-Gqi5 was selected through western blotting employing an anti-HA antibody, and the selected cells were cloned twice.
# By use of a human S1P1 (EDG-1) cDNA clone (open biosystems, cDNA collection #4071217) as a template, human S1P1 (EDG-1) DNA was produced through PCR. This PCR product was integrated into pUC118. By means of a site-directed mutagenesis kit (product of STRATAGENE), a plasmid into which DNA having a target sequence (The Journal of Biological Chemistry Vol. 265, No. 16, 9308-9313, 1990) had been integrated was produced.
# A human S1P1 (EDG-1) gene (The Journal of Biological Chemistry Vol. 265, No. 16, 9308-9313, 1990) integrated into pUC118 was digested by use of restriction enzymes, and the cut fragment was purified. The fragment was ligated with an expression plasmid pcDNA3.1/mycHisA (product of Invitrogen). The ligation mixture was integrated into E. Coli DH5α, and a positive clone was selected, whereby a S1P1 (EDG-1) expression plasmid was produced.
# A S1P1 (EDG-1) expression plasmid was integrated into the CHO cells expressing HA-Gqi5, which had been produced in (3) above, by use of a Fugene 6 reagent (product of Roche Diagnostics K.K.). […] The selected cells were cloned twice.
# CHO cells expressing Gqi5 protein, to which human S1P1 (EDG-1) had been introduced and which had been produced in (6) above, were seeded on a 96-well black plate with a transparent bottom surface (2.5×10^4 cell/well) and cultured overnight. The culture was washed once with a serum-free medium, and an assay buffer (calcium assay kit, product of Molecular Devices, 100 μL) containing 2.5 mM probenicid and 0.25% fatty acid-free BSA was added to the washed cells. The mixture was allowed to react at 37° C. for one hour under […] CO2. Separately, each test compound was diluted so as to attain a concentration five times the final test concentration. The diluted liquid (25 μL) was added to each well, and change in intracellular calcium concentration was measured by means of a FLEXstation II (product of Molecular Devices). The change was determined as the difference between the minimum intracellular calcium level and the peak (maximum) value thereof. A sigmoid curve was obtained from the measurements, and an EC50 value was calculated from the curve so as to evaluate agonist activity against an S1P1 (EDG-1) receptor.
# [3] = system: lymphocytes in peripheral blood; test: Decrease in peripheral blood lymphocyte count of rats after administration of each compound; assay type: in vivo; conditions: rats (female Lewis), four hours after administration, peripheral blood lymphocyte count vs solvent group; for T/C(%) (3 mg/kg): 3 mg/kg peroral; for T/C(%) (10 mg/kg): 10 mg/kg peroral
# Description: 3. In Vivo Evaluation of Test Substances (Decrease in Peripheral Blood Lymphocyte Count of Rats after Administration of Each Compound):
# The effect of administration of an S1P receptor agonist on decrease in peripheral blood lymphocyte counts of rats (female Lewis) was evaluated.
# Four hours after peroral administration, blood (0.5 mL) was collected from each rat through the cervical vein under anesthesia with ether by use of EDTA as an anti-coagulant. The number of lymphocytes in peripheral blood and blood cell fractions were determined by means of a general hematological tester ADVIA 120 (Bayer Medical). The action of each test drug on reducing peripheral blood lymphocyte count was evaluated as T/C (%) ratio at the time of blood collection, which is a ratio of average peripheral blood lymphocyte count of a test drug-administered group to that of the solvent-administered group (control group).
# as §1
# [4] = system: blood lymphocytes; conditions: phosphorylated in the living body, acts as S1P receptor agonist; cited from earlier work
# [5] = clinically tested in transplant and multiple sclerosis; cited from earlier work
# [6] = system: production of cytokines such as IL-2; conditions: in vitro; cited from earlier work
# T1 sequence (P21453 whole entry): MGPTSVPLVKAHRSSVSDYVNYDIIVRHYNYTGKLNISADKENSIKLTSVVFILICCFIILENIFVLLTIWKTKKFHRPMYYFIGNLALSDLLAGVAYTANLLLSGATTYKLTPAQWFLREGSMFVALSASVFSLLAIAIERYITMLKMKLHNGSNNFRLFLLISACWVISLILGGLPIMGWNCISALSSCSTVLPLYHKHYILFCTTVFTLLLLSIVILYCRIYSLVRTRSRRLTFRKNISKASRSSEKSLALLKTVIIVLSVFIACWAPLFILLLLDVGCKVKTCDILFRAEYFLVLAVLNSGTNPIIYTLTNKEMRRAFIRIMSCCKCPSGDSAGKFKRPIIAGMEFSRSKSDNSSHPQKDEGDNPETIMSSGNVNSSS
EC50 ([2]; Table 2),EC50 ([2]; Table 4),SMILES,T/C(%) (3 mg/kg) [1],T/C(%) (10 mg/kg) [1],T/C(%) (3 mg/kg) [3],T/C(%) (10 mg/kg) [3],other results
1.3 nM,,"N[C@H](CC(=O)O)C(=O)N1CCc2cc(OCc3cc(-c4ccccc4)c(C(F)(F)F)s3)ccc21 [Example 10, (R)-3-Amino-4-oxo-4-[5-[(4-phenyl-5-trifluoromethyl-2-thienyl)methoxy]indolin-1-yl]butyric acid]",21.6%,16.3%,,,
4.4 nM,,"N[C@H](CC(=O)O)C(=O)N1CCc2cc(OCc3ccc(-c4ccccc4)c(C(F)(F)F)c3)ccc21 [Example 14, (R)-3-Amino-4-oxo-4-[5-[(2-trifluoromethyl-4-biphenyl)methoxy]indolin-1-yl]butyric acid]",17.0%,11.1%,,,
2.4 nM,,"O=C(O)CCNCC(=O)N1CCc2cc(OCc3cc(-c4ccccc4)c(C(F)(F)F)s3)ccc21 [Example 29, 3-[N-[2-Oxo-2-[5-[(4-phenyl-5-trifluoromethyl-2-thienyl)methoxy]indolin-1-yl]ethyl]amino]propionic acid]",15.5%,13.9%,,,
2.9 nM,,"CN(CCC(=O)O)CC(=O)N1CCc2cc(OCc3cc(-c4ccccc4)c(C(F)(F)F)s3)ccc21 [Example 30, 3-[N-Methyl-N-[2-oxo-2-[5-[(4-phenyl-5-trifluoromethyl-2-thienyl)methoxy]indolin-1-yl]ethyl]amino]propionic acid]",21.7%,11.1%,,,
6.3 nM,,"O=C(O)CCNCC(=O)N1CCc2cc(OCc3ccc(-c4ccccc4)c(C(F)(F)F)c3)ccc21 [Example 31, 3-[N-[2-Oxo-2-[5-[(2-trifluoromethyl-4-biphenyl)methoxy]indolin-1-yl]ethyl]amino]propionic acid]",30.8%,19.8%,,,
,8.7 nM,"CN[C@H](CC(=O)O)C(=O)N1CCc2cc(OCc3ccc(C4CCCCC4)cc3C(F)(F)F)ccc21 [Example 43, 4-[5-[[4-(Cyclohexyl)-2-(trifluoromethyl)phenyl]methoxy]indolin-1-yl]-(3R)-(methylamino)-4-oxobutyric acid]",,,34.9%,25.7%,
,4.7 nM,"CC(C)c1ccc(COc2ccc3c(c2)CCN3C(=O)CNCCC(=O)O)cc1OC(F)(F)F [Example 97, 3-[N-[2-[5-(4-Isopropyl-3-trifluoromethoxybenzyloxy)indolin-1-yl]-2-oxoethyl]amino]propionic acid hydrochloride]",,,22.2%,17.9%,
,6.2 nM,"O=C(O)[C@@H]1CCCN(CC(=O)N2CCc3cc(OCc4cc(-c5ccccc5)c(C(F)(F)F)s4)ccc32)C1 [Example 119, 1-[2-Oxo-2-[5-[(4-phenyl-5-trifluoromethyl-2-thienyl)methoxy]indolin-1-yl]ethyl]piperidine-(3R)-carboxylic acid]",,,28.7%,20.7%,
,4.5 nM,"CN[C@H](CC(=O)O)C(=O)N1CCc2c1ccc(OCc1ccc(C3CCCC3)c(C(F)(F)F)c1)c2C [Example 129, 4-[5-[(4-Cyclopentyl-3-trifluoromethylphenyl)methoxy]-4-methylindolin-1-yl]-(3R)—(N-methylamino)-4-oxobutyric acid]",,,18.2%,17.7%,
,,"CCCCCCCCc1ccc(CCC(N)(CO)CO)cc1.Cl [FTY720, 2-amino-2-[2-(4-octylphenyl)ethyl]-1,3-propanediol hydrochloride]",,,,,reduction in blood lymphocytes [4]: induce reduction in blood lymphocytes; adverse side effect [5]: bradycardia is reported as an adverse side effect; inhibitory action on production of cytokines such as IL-2 [6]: no inhibitory action
